Reference: patent US10906876B2, “Tetrahydroisoquinolines as selective NADPH oxidase 2 inhibitors” (University of Pittsburgh—Of the Commonwealth System of …, priority 2013, dated 2021)
Read-outs that look alike come from different tables or passages of the source.

Key:
[1] = biological target: T1, Nox2 (Homo sapiens, UniProt P04839); assay: Cell-free superoxide production in lysed COS-Nox2 cells / Nox2 cell homogenate, cytochrome C assay; assay type: biochemical
T1 construct: expressed in transfected cells
T1 sequence (P04839 2-570 limits assumed): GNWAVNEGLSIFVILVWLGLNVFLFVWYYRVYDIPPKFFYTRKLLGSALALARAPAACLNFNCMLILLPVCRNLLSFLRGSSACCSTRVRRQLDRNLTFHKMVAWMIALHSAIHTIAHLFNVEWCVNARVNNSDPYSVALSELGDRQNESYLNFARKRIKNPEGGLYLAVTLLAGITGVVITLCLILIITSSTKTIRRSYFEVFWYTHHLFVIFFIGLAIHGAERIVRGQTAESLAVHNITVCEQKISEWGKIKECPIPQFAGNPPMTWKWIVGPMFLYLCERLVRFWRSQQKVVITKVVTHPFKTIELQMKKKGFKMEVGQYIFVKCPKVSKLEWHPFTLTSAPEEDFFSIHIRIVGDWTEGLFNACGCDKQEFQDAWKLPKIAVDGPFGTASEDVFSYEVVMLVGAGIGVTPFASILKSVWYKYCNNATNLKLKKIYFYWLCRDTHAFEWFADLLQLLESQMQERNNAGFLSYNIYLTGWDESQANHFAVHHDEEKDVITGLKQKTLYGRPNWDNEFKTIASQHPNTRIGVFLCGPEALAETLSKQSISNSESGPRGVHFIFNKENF
Experimental: COS-Nox2, COS-Nox1/NOXO1/NOXA1 and COS-22 cells were suspended to a concentration of 5×10^7 cells/ml in ice-cold disruption buffer (8 mM potassium, sodium phosphate buffer pH 7.0, 131 mM NaCl, 340 mM sucrose, 2 mM NaN3, 5 mM MgCl2, 1 mM EGTA, 1 mM EDTA and protease inhibitor cocktail) (Price et al., Blood, 2002, 99:2653-2661; Molshanski-Mor et al., Methods Mol. Biol., 2007, 412:385-428). The cells were lysed by freeze/thaw cycles (5 cycles), and passed through a 30-gauge needle 5 times to further lyse the cells. Cell disruption was confirmed by phase contrast microscopy. The cell lysate was centrifuged at 1000×g for 10 min at 4° C. to remove unbroken cells, nuclei and debris. Throughout all procedures, extreme care was taken to maintain the lysate at a temperature close to 0° C. Superoxide (O2^•−) production was calculated from the initial linear rate (over 10 min) of SOD-inhibitable cytochrome c reduction quantified at 550 nm using the extinction coefficient of 21.1 mM^−1 cm^−1 (Biotek Synergy 4 Hybrid Multi-Mode Microplate Reader). The oxidase assay buffer consisted of 65 mM sodium phosphate buffer (pH 7.0), 1 mM EGTA, 10 μM FAD, 1 mM MgCl2, 2 mM NaN3 and 0.2 mM cytochrome C. The components of the cell-free system were added in the following order: oxidase assay buffer, cell lysate (5×10^5 cell equivalents/well) and drugs at a final concentration as shown on individual graphs. The plates were placed on an orbital shaker to mix contents for 5 min at 120 movements/min at room temperature. LiDS, an established lipid activator of phagocyte cell-free system, was added at a concentration of 130 μM and O2^•− production was initiated by the addition of 180 μM NADPH.
Cell-free activity in lysed COS-Nox2 cells was promising, since compound 7 was also able to inhibit O2^•− production in a system in which assembly of active Nox2 subunits is achieved by treatment with the anionic amphiphile LiDS (lithium dodecyl sulfate) and the reaction is initiated by cofactor NADPH (Molshanski-Mor et al., Methods Mol. Biol. 2007, 412:385-428). COS-Nox2 cell lysate was preincubated with various concentrations of compound 7 for 15 min at 25° C. After the addition of 130 μM LiDS, O2^•− production was initiated by the addition of 180 μM NADPH and measured by the initial linear rate of SOD-inhibitable cytochrome C reduction. O2^•− production is expressed as nmol O2^•−/min/10^7 cell equivalents.
Cells were suspended to a concentration of 5×10^7 cells/ml in ice-cold disruption buffer (8 mM potassium, sodium phosphate buffer pH 7.0, 131 mM NaCl, 340 mM sucrose, 2 mM NaN3, 5 mM MgCl2, 1 mM EGTA, 1 mM EDTA and protease inhibitor cocktail). The cells were lysed by freeze/thaw cycles (5 cycles), and passed through a 30-gauge needle five times to further lyse the cells. Cell disruption was confirmed by phase contrast microscopy. The cell lysate was centrifuged at 1000×g for 10 min at 4° C. to remove unbroken cells, nuclei and debris. Throughout all procedures, extreme care was taken to maintain the lysate at a temperature close to 0° C.
Superoxide (O2^•−) production from cell homogenates was calculated from the initial linear rate (over 10 min) of SOD-inhibitable cytochrome c reduction quantified at 550 nm using the extinction coefficient of 21.1 mM-1 cm-1 (Biotek Synergy 4 Hybrid Multi-Mode Microplate Reader). The oxidase assay buffer consisted of 65 mM sodium phosphate buffer (pH 7.0), 1 mM EGTA, 10 μM FAD, 1 mM MgCl2, 2 mM NaN3 and 0.2 mM cytochrome C.

[2] = test system: rat neonatal cardiomyocytes; assay: ROS production of rat neonatal cardiomyocytes treated with high glucose; assay type: cell-based; settings: 25 mM glucose, 25 μM compound
Experimental: (§1) Cos-Nox2, Cos-Nox1, human fibroblasts were cultured in DMEM, 10% FBS-supplemented media, human pulmonary artery endothelial cells were cultured in EBM2media containing growth factors (Lonza) and rat neonatal cardiomyocytes were cultured in DMEM/F12 (50/50) media supplemented with 5% horse serum, 100 μM BrdU and Insulin-Transferrin-Selenium (ITS, Gibco).
To evaluate the pre-clinical potential of compounds 11g and 11h, the effects of high levels of glucose, which induce the generation of reactive oxygen species in cardiomyocytes and may contribute to the development of cardiomyopathy in diabetes, were evaluated. […] Furthermore, both compound 11g and compound 11h were able to reduce cardiomyocyte hypertrophy associated with high glucose challenge (FIG. 16).

[3] = test system: human fibroblasts; assay: PMA-stimulated ROS production by human fibroblasts; assay type: cell-based; settings: 10 μM compound
Experimental: as §1
Compounds 11g and 11h also were evaluated for potential inhibitory activity in phorbol ester (PMA)-stimulated ROS production by human fibroblasts. As expected PMA, an activator of protein kinase C, stimulated superoxide production. This effect was attenuated by both compounds at a concentration of 10 μM (FIG. 11).

[4] = cell-free system, data not shown, read-out: IC50 in a cell-free system

| IC50 ([1]; Nox2 cell homogenate stimulated with LiDS, read-out: IC50 in ROS production by Nox2 cell homogenate) [nM] | IC50 [1, 4] [nM] | IC50 in cell homogenate lower than that for whole cells ([1]; homogenate vs whole cells) [fold] | SMILES | LiDS-stimulated O2•− generation ([1]; 6.3 μM compound, lysed COS-Nox2 cells, 130 μM LiDS, 180 μM NADPH) | High glucose-dependent ROS production in rat cardiomyocytes [2] | PMA-stimulated superoxide production [3] |
| --- | --- | --- | --- | --- | --- | --- |
|  |  |  | C=C(C)CC1NC2CC(C)(C)C1c1c(Br)cccc12 (racemic) [Compound 7, (±)-(1S,4R,9S)-5-Bromo-3,3-dimethyl-9-(2-methylallyl)-1,2,3,4-tetrahydro-1,4-(epimino-methano)-naphthalene] | almost non-stimulated levels |  |  |
| 32.4 ± 9 | ~30 | 100 | C=C(C)CC1C2c3c(Br)cccc3C(CC2(C)C)N1CCCCC (racemic) [Compound 11g, (±)-(1S,4R,9S)-5-Bromo-3,3-dimethyl-9-(2-methylallyl-10-pentyl-1,2,3,4-tetrahydro-1,4-(epiminomethano)naphthalene] |  | ameliorated | attenuated |
|  | ~30 |  | C=C(C)CC1C2c3c(Br)cccc3C(CC2(C)C)N1Cc1cccs1 (racemic) [Compound 11h, (±)-(1S,4R,9S)-5-Bromo-3,3-dimethyl-9-(2-methylallyl)-10-(thiophen-2-ylmethyl)-1,2,3,4-tetrahydro-1,4-(epiminomethano)naphthalene] |  | ameliorated | attenuated |
